{"source": "patent US8993624B2", "about": "“Method of preventing and treating inflammatory diseases and disorders with abscisic acid” (Virginia Tech Intellectual Properties, Inc., priority 2010, dated 2015)", "key": {"PPAR γ [1]": {"test_system": "PPAR γ", "assay": "LANCL2 siRNA and PPAR γ co-transfections in RAW macrophages", "format": "cell-based", "quoted_text": "LANCL2 siRNA and PPAR γ co-transfections—RAW macrophages were transfected with the PPAR γ plasmid as described in the preceding section with or without LANCL2 siRNA. Specifically, RAW macrophages were then co-transfected with 0.2-μg plasmid DNA and 0.25 μL LANCL2 siRNA (20 μM) per well using the Lipofectamine 2000 transfection reagent (Invitrogen). […] After incubation, RAW macrophages were harvested in reporter lysis reagent and luciferase activity was determined as described above. LANCL2 mRNA was measured by RT-PCR in control wells to assess the efficiency of knockdown."}, "[2]": {"test_system": "LPS-stimulated bone marrow-derived macrophages", "assay": "Inflammatory mediators in LPS-stimulated bone marrow-derived macrophages", "format": "cell-based, mouse", "conditions": "ABA 2.5 μM, 12 hours", "method": "Bone Marrow-derived Macrophage (BMM) Cultures—Bone marrow cells from PPAR γ flfl; MMTV-Cre− (flfl-Cre−) and flfl-Cre+ mice were cultured in DMEM with M-CSF (50 ng/ml) for 7 days. Fresh media with M-CSF was added on day 3. […] Following differentiation macrophages were directly stimulated with LPS (100 ng/ml) as previously described for 12 hours (21). ABA was added to macrophage cultures at a concentration of 2.5 μM. The effect of ABA on LPS/toll-like receptor-4 (TLR4)-mediated prostaglandin E2 (PGE2), leukotriene B4 (LTB4) and monocyte chemoattractant protein-1 (MCP-1) production by macrophages was examined in cell supernatants 12 hours following the LPS challenge by using a commercial PGE2 EIA kit (Cayman Chemicals), a LTB4 competitive binding assay (R&D Systems) and a MCP-1 ELISA (R&D Systems), respectively, per the manufacturer's instructions."}, "RXR": {"test_system": "RXR", "assay": "RXR reporter activity (data not shown)", "format": "cell-based"}, "[3]": {"molecular_target": "T1, ligand-binding domain of PPAR γ (Homo sapiens, UniProt P37231)", "T1 construct": "purchased Invitrogen", "T1 sequence (P37231 238-503 limits assumed)": "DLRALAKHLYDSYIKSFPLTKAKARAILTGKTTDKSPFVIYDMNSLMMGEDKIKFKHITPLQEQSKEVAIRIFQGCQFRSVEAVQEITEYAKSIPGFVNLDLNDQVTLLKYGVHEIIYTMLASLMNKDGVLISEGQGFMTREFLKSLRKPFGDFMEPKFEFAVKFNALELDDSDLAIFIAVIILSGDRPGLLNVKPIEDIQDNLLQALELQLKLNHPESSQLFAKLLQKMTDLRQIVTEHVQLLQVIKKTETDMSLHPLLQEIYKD", "assay": "PPAR γ ligand-binding assay (Polarscreen PPAR Competitor Assay, Green)", "conditions": "0.001-10 μM, 4 hours", "quoted_text": "After 4 hours the ability of each compound to displace the fluorescent ligand, and therefore reduce the polarization values, was assessed using a fluorescent plate reader with 485 nm excitation and 535 nm emission. Results are a compilation of 4 independent experiments."}, "[4]": {"test_system": "inactivated influenza virus PR8 antigens", "assay": "Lymphocyte proliferation after influenza virus vaccination of mice", "format": "in vivo, mouse"}, "[5]": {"test_system": "LPS-induced splenic gene expression", "assay": "LPS challenge in mice, spleen microarray and network analysis", "from_the_text": "Microarray data analysis—After homogenization of spleens, total RNA was extracted and purified using the RNAeasy system according to manufacturer's instructions (Qiagen Valencia, Calif.). The QIAGEN RNase-free DNase supplement kit was used to ensure that the RNA was free from DNA contamination. RNA was then processed and labeled according to the standard target labeling protocols and the samples were hybridized, stained, and scanned per standard Affymetrix protocols at VBI core laboratory on Mouse 430 2.0 expression arrays (Affymetrix Inc., Santa Clara, Calif.). All statistical analysis of the data was performed within the R statistical environment—Version 2.9.0 (24) using Bioconductor packages (25)]. Raw microarray data from CEL files were read with ‘affy’ package (26) and pre-processed by gcRMA algorithm (GC Robust Multiarray Average) that performs the three steps: (i) adjustment of the gene expression signal against the background caused by optical noise and non-specific binding, (ii) robust multi-array normalization (27), and (iii) summarization of the probes belonging to each probe set. Empirical Bayes adjustment was applied and p-values were corrected for multiple testing. […] The selected list of genes was analysed with hypergeometric testing that applies Fisher's exact test to find association between interesting genes and membership within the KEGG pathway(s).\nThe experiment followed a 2×2 factorial design with 2 factors: LPS and ABA, each with 2 levels: absence and presence. Thus there were four groups of mice: LPS & ABA, LPS & control, no LPS & control, no LPS & ABA. The design matrix, constructed in the package ‘limma’, defined coefficients for LPS main effect, ABA main effect and the interaction effect. […] These 43 probe sets were uploaded to IPA8.0 for Ingenuity Pathway Analysis (Ingenuity Systems, Redwood City, Calif.)."}, "PPAR γ [6]": {"molecular_target": "T2, PPAR γ (Mus musculus, UniProt P37238)", "T2 construct": "host or cells: 3T3-L1 preadipocytes", "T2 sequence (P37238 1-505)": "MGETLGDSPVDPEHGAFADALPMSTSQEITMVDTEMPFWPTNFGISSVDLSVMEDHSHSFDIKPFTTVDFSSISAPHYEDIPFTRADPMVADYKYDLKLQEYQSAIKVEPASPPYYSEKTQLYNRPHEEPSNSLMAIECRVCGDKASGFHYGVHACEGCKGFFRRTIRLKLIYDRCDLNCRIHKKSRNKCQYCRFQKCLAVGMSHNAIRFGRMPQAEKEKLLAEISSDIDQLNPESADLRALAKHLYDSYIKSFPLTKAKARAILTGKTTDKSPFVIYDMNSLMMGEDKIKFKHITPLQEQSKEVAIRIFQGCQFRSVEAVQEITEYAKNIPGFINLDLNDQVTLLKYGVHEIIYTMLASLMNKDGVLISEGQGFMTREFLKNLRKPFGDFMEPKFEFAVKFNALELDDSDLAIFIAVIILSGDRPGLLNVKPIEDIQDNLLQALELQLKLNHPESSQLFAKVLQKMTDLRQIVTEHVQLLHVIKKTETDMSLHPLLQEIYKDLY", "conditions": "racemic mixture, 3T3-L1 preadipocytes; cited from earlier work"}, "[7]": {"conditions": "network analysis, LPS challenged mice"}}}
{"smiles": "CC1=CC(=O)CC(C)(C)C1(O)/C=C/C(C)=C\\C(=O)O", "note": "(racemic) [ABA, abscisic acid]", "values": [{"measurement": "PPAR γ reporter activity", "setting": "PPAR γ [1]; normal LANCL2, ABA 1.25-10 μM, Ros 1 or 10 μM, vs untreated cells", "value": "significantly elevated PPAR γ"}, {"measurement": "PPAR γ reporter activity", "setting": "PPAR γ [1]; with LANCL2 siRNA", "value": "neither ABA nor Ros significantly affected PPAR γ activity"}, {"measurement": "PGE2 secretion", "setting": "[2]; EIA", "value": "significantly suppressed"}, {"measurement": "MCP-1 secretion", "setting": "[2]; ELISA", "value": "significantly suppressed"}, {"measurement": "RXR reporter activity", "setting": "RXR", "value": "does not increase"}, {"measurement": "ability to compete with the tracer for binding to the PPAR γ LBD", "setting": "[3]", "value": "not a PPAR γ ligand"}, {"measurement": "antigen-specific lymphoproliferative recall responses", "setting": "[4]; ABA diet 100 mg/kg, days 14 and 21 post-vaccination", "value": "increased"}, {"measurement": "immunostimulatory effect on responses to influenza vaccination", "setting": "[4]; mice lacking PPAR γ in immune cells", "value": "attenuated"}, {"measurement": "magnitude of LPS-modulated gene expression (fold-change)", "setting": "[5]; 64 genes, spleen", "value": "attenuated"}, {"measurement": "ABA effect on LPS-induced gene expression", "setting": "[5]; absence of functional immune cell PPAR γ", "value": "impaired (or abrogated)"}, {"measurement": "nuclear receptors (PPAR γ, PPAR α, RXRα, RXRβ)", "setting": "[5]; [7]", "value": "up-regulation"}, {"measurement": "pro-inflammatory genes (IL-6, IL-1β, MIF and IFN-γ)", "setting": "[5]; [7]", "value": "down-regulation"}, {"measurement": "expression of IL-6, IFN-γ, TNF-α induced protein 2 and chemokine ligand 11", "setting": "[5]; spleen, 6 hours post LPS", "value": "down-regulated"}, {"measurement": "PPAR γ activation", "setting": "PPAR γ [6]", "value": "activates PPAR γ"}]}
